Laboratory results: article PMC6721227, “Insight into the PTP1B Inhibitory Activity of Arylbenzofurans: An In Vitro and In Silico Study” (Molecules, 2019)
Entries after “also recorded” stand apart in the source; their conditions may differ.

Key:
[1] = molecular target: T1, Protein tyrosine phosphatase 1B (PTP1B, human recombinant) (Homo sapiens, UniProt P18031); experiment: PTP1B inhibitory assay (inhibition of pNPP hydrolysis catalyzed by PTP1B); type: biochemical
T1 construct: purchased Biomol International LP (Plymouth Meeting, PA, USA)
T1 sequence (P18031 1-435): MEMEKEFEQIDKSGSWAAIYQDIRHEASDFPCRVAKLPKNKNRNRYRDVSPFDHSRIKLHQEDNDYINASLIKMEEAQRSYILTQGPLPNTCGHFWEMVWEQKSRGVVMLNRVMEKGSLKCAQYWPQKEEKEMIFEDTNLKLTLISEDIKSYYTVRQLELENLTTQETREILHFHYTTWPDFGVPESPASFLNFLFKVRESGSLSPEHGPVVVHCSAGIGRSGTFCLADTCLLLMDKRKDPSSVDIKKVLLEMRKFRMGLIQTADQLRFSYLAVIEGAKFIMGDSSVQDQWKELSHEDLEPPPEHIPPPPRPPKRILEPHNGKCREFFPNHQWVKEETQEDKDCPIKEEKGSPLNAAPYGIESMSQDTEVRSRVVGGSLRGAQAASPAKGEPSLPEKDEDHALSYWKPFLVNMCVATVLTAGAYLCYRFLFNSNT
Excerpt: (§1) Ethylenediaminetetraacetic acid, p-nitrophenyl phosphate (pNPP), and dimethylsulfoxide were purchased from Sigma-Aldrich Co. (St. Louis, MO, USA). Protein tyrosine phosphatase 1B (PTP1B, human recombinant) and dithiothreitol (DTT) were purchased from Biomol® International LP (Plymouth Meeting, PA, USA) and Bio-Rad Laboratories (Hercules, CA, USA), respectively. All chemicals and solvents used in the isolation and enzyme assays were of reagent grade and were purchased from commercial sources. TLC were performed on a precoated Merck Kiesel gel 60 F254 plates (20 × 20 cm, 0.25 mm) and RP-18 F254S plates (5 × 10 cm) (Merck, Darmstadt, Germany).
Inhibition of pNPP hydrolysis catalyzed by PTP1B was carried out by the method as described but with slight modification.

[2] = molecular target: T1, Protein tyrosine phosphatase 1B (PTP1B, human recombinant); experiment: Enzyme kinetic analysis (Lineweaver-Burk and Dixon plots); type: biochemical; details: for Ki: determined by Dixon plot; for Inhibition Type: determined by Lineweaver-Burk plot
Excerpt: Here, we employed Lineweaver-Burk and Dixon plots to determine the inhibition type and inhibition constant (Ki value) for each compound (Figure 2, Table 1).
as §1
The kinetic parameters were determined using Lineweaver-Burk double-reciprocal plots and the Dixon plot method at increasing substrate and compound concentrations. All measurements were measured in triplicate, and Sigma Plot 12.0 (SPCC Inc., Chicago, IL, USA) was used to calculate the experimental parameters.

PTP1B = system: PTP1B; design: method as in PMID 15258570; details: allosteric inhibitor of PTP1B; cited from earlier work

SMILES	IC50 [1] [µM]	times more potent than compound A ([1]; MD2 vs compound A, PTP1B inhibition) [times]	Ki [2] [nM]	Inhibition Type [2]	IC50 (PTP1B) [µM]	reduction of activity (SA vs. MD) ([1]; replacement of C3′-OH with -OCH3, SA vs. MD) [times]
CC(C)=CCCC1(C)C=Cc2c(ccc3cc(-c4cc(O)cc(O)c4CC=C(C)C)oc23)O1 (centres unmarked) [MD2, mulberrofuran D2]	3.11 ± 0.1	7	2630	non-competitive inhibition; also recorded: non-competitive inhibitor; also recorded: Noncompetitive		
COc1cc(O)cc(-c2cc3ccc(O)c(C/C=C(\C)CCC=C(C)C)c3o2)c1CC=C(C)C [SA, sanggenofuran A]	31.9 ± 2.98					> 3
CC(C)=CCC/C(C)=C/CC/C(C)=C\Cc1c(O)cc(O)c(CC=C(C)C)c1-c1cc2ccc(O)cc2o1 [MB, morusalfuran B]	12 ± 0.75		2840	mixed-type inhibition; also recorded: mixed type inhibitor		
CC(C)=CCC/C(C)=C/Cc1c(O)ccc2cc(-c3cc(O)cc(O)c3CC=C(C)C)oc12 [MD, mulberrofuran D]	11.6 ± 0.19		4790	mixed-type inhibition; also recorded: mixed type inhibitor		
C[C@@]12C=C(c3c(O)cc(-c4cc5ccc(O)cc5o4)cc3O)C[C@@H](C1)c1ccc(O)cc1O2 [MH, mulberrofuran H]	53.5 ± 12.5					
